Data published in patent US12643875B2, “Antibacterial compounds” (The Penn State Research Foundation, priority 2020, dated 2026).
Values after ≈ are worked out from the molar mass of the structure shown. Where two headings read alike, the source gives them in different places.

Assays:
bacteria = experiment: Bacterial growth inhibition, broth microdilution (CLSI M07-A10); type: cell-based; details: for IC50: growth inhibition
Excerpt: Assay: Broth microdilution by the method of: Clinical and Laboratory Standards Institute, Ed., Methods for dilution antimicrobial susceptibility tests for bacteria that grow aerobically: M07-A10; approved standard (Committee for Clinical Laboratory Standards, Wayne, PA, 10. ed., 2015), Documents/Clinical and Laboratory Standards Institute.

[1] = system: σ^E-mediated transcription; experiment: σ^E-mediated transcription inhibition, E. coli reporter assay; type: cell-based; details: Escherichia coli
Method: The selected exemplified compounds were tested for inhibition of σ^E-mediated transcription using an E. coli reporter assay according to the protocol described in U.S. Pat. No. 8,962,550, which is incorporated herein by reference.

[2] = system: HeLa (cervical cancer cells); experiment: Cytotoxicity, propidium iodide fluorescence, HeLa cells; type: cell-based, Human; design: key: % cytotoxicity relative to positive control (100% cell lysis); details: 24 h, relative to positive control (100% cell lysis)
Method: (§1) Assay: HUVEC (Human Umbilical Vein Endothelial Cells) and HeLa (cervical cancer cells) were seeded into 96-well culture plates at a density of 1.5×10^5 cells/ml in endothelial cell or DMEM growth medium, supplemented with 10% fetal bovine serum and no antibiotic. Cells were cultured for 24 h before assay setup. Compounds were diluted in the corresponding growth medium and tested in triplicate at 10× and 20× the minimum bacterial growth inhibitory concentrations. Growth media in the 96-well plate was aspirated off and replaced with media containing the test compounds or DMSO (0.5%, vol/vol). The plates were incubated at 37° C. in a 5% CO2 incubator for 24 h. A positive control sample was prepared by replacing media in designated wells with a solution containing a cell lysis reagent. Propidium iodide was then added at 5 μM/well and the plate was incubated for 10 minutes at room temperature. Fluorescence was then recorded using a SpectraMax i3 (Molecular Devices) at λex 535 nm/λem 617 nm. Cytotoxicity was determined by quantifying the fluorescence values for each compound relative to the positive control (100% cell lysis). For selected exemplified compounds, cytotoxicity against HeLa and HuVEC cells was measured at 10× and 20×MIC.

[3] = system: HUVEC (Human Umbilical Vein Endothelial Cells); experiment: Cytotoxicity, propidium iodide fluorescence, HuVEC cells; type: cell-based; design: key: % cytotoxicity relative to positive control (100% cell lysis); details: 24 h, relative to positive control (100% cell lysis)
Method: as §1

[4] = Solubility in growth medium of the transcription assay; type: physicochemical; design: key: *: poor solubility in test medium
Plasma binding = type: in vitro ADME; details: for free compound: serum and plasma binding
Serum binding = type: in vitro ADME
CYP [5] = system: CYP
CYP (isoform not given) = experiment: HLM CYP inhibition; details: human, human liver microsomes
[6] = Stability in human liver microsomes (intrinsic clearance)
CYP [7] = experiment: HLM CYP inhibition

Cc1cc(F)ccc1-c1cccc(NS(=O)(=O)c2ccccc2)n1 [Compound 39705]
MIC (bacteria): 34 µg/mL (≈ 99.3 µM) | IC50 (bacteria): 16 µg/mL (≈ 46.7 µM)

Cc1cc(F)ccc1-c1cccc(Nc2ccc(C#C[Si](C)(C)C)cc2)n1 [Compound 39715]
MIC (bacteria): 75 µg/mL (≈ 200 µM)

c1ccc(-c2cccc(Nc3ccncc3)n2)cc1 [Compound 39711]
MIC (bacteria): 6.2 µg/mL (≈ 25.1 µM) | IC50 (bacteria): 3.7 µg/mL (≈ 15 µM)

Cc1cc(F)ccc1-c1cccc(NC(=O)c2cccc(Cl)c2)n1 [Compound 39720]
MIC (bacteria): 4.3 µg/mL (≈ 12.6 µM) | IC50 (bacteria): 2.4 µg/mL (≈ 7.04 µM) | IC50 [1]: ~34.1 µg/mL (≈ 100 µM) | Cytotoxicity at 10× MIC HeLa [2]: 8 | Cytotoxicity at 20× MIC HeLa [2]: 8 | Cytotoxicity at 10× MIC HuVEC [3]: 10 | Cytotoxicity at 20× MIC HuVEC [3]: 10 | solubility in test medium [4]: * | Human Liver Microsomes Intrinsic Clearance (CLint): 1.51 mL/min/g liver

Cc1cc(F)ccc1-c1cccc(NC(=O)c2ccccc2)n1 [Compound 39721]
MIC (bacteria): 20 µg/mL (≈ 65.3 µM)

Cc1cc(F)ccc1-c1cccc(NC(=O)c2ccco2)c1 [Compound 39733]
MIC (bacteria): 29 µg/mL (≈ 98.2 µM) | IC50 (bacteria): 16 µg/mL (≈ 54.2 µM)

c1ccc(COc2ccc(-c3cccc(Nc4ccncc4)n3)cc2)cc1 [Compound 39718]
MIC (bacteria): 35 µg/mL (≈ 99 µM)

Cc1cc(F)ccc1-c1cccc(Nc2ccccc2)n1 [Compound 39704]
MIC (bacteria): 1.7 to 3.5 µg/mL (≈ 6.11 to 12.6 µM) | IC50 (bacteria): 0.9 to 2.8 µg/mL (≈ 3.23 to 10.1 µM) | IC50 [1]: 11 µg/mL (≈ 39.5 µM) | Cytotoxicity at 10× MIC HeLa [2]: 11 | Cytotoxicity at 20× MIC HeLa [2]: 11 | Cytotoxicity at 10× MIC HuVEC [3]: 15 | Cytotoxicity at 20× MIC HuVEC [3]: 21 | % plasma binding (Plasma binding): 99.9% | free compound (Plasma binding): no detectable free compound | % serum binding (Serum binding): 100% | solubility in test medium [4]: * | Human Liver Microsomes Intrinsic Clearance (CLint): 5.38 mL/min/g liver | IC50 for CYP inhibition over the MIC (CYP [5]): more than 5 × | IC50 (CYP (isoform not given)): 13.5 µM

Cc1cc(F)ccc1-c1cccc(Nc2ccncc2)c1 [Compound 39744]
MIC (bacteria): 14 µg/mL (≈ 50.3 µM)

Cc1cc(F)ccc1-c1cccc(-c2cn(C3CCSCC3)nn2)c1 [Compound 39735]
MIC (bacteria): 35 µg/mL (≈ 99 µM)

Cc1cc(F)ccc1-c1cccc(NC(=O)c2cccc(Cl)c2)c1 [Compound 39732]
MIC (bacteria): 8.5 µg/mL (≈ 25 µM) | IC50 (bacteria): 5.9 µg/mL (≈ 17.4 µM)

Cc1cc([N+](=O)[O-])ccc1-c1cccc(Nc2ccncc2)n1 [Compound 39709]
MIC (bacteria): 117 µg/mL (≈ 382 µM)

Cc1cc(F)ccc1-c1cccc(-c2cn(-c3cccc4ncccc34)nn2)c1 [Compound 39739]
MIC (bacteria): 38 µg/mL (≈ 99.9 µM)

c1ccc(-c2cccc(-c3cn(-c4ccncc4)nn3)c2)cc1 [Compound 39748]
MIC (bacteria): 7.6 µg/mL (≈ 25.5 µM) | IC50 (bacteria): 2.6 µg/mL (≈ 8.71 µM) | IC50 [1]: 2.6 µg/mL (≈ 8.71 µM) | Cytotoxicity at 10× MIC HeLa [2]: 14 | Cytotoxicity at 20× MIC HeLa [2]: 14 | Cytotoxicity at 10× MIC HuVEC [3]: 15 | Cytotoxicity at 20× MIC HuVEC [3]: 21 | % plasma binding (Plasma binding): 99.7% | % serum binding (Serum binding): 99.7% | Human Liver Microsomes Intrinsic Clearance (CLint): 1.28 mL/min/g liver | IC50 (CYP (isoform not given)): 1.48 µM

Cc1ncc2n1-c1ccc(Cl)cc1C(c1ccccc1F)=NC2 [Midazolam control, Midazolam]
Human Liver Microsomes Intrinsic Clearance (CLint) [6]: 9.04 mL/min/g liver

Cc1cc(F)ccc1-c1cccc(Nc2ccc([N+](=O)[O-])c3nonc23)n1 [Compound 39722]
MIC (bacteria): 73 µg/mL (≈ 200 µM)

Cc1cc(F)ccc1-c1cc(NC(=O)c2ccco2)ccn1 [Compound 39717]
MIC (bacteria): 50 µg/mL (≈ 169 µM)

c1cc(Nc2ccncc2)nc(C2CCCCC2)c1 [Compound 39710]
MIC (bacteria): 51 µg/mL (≈ 201 µM)

Cc1cc(F)ccc1-c1cccc(NS(=O)(=O)c2cccc3c(N(C)C)cccc23)n1 [Compound 39713]
MIC (bacteria): 87 µg/mL (≈ 200 µM)

O=C(Nc1cccc(-c2ccccc2)c1)c1cccc(C(F)(F)F)c1 [Compound 39751]
MIC (bacteria): 8.5 µg/mL (≈ 24.9 µM) | IC50 (bacteria): 4.6 µg/mL (≈ 13.5 µM) | IC50 [1]: 4.3 µg/mL (≈ 12.6 µM) | Cytotoxicity at 10× MIC HeLa [2]: 9 | Cytotoxicity at 20× MIC HeLa [2]: 7 | Cytotoxicity at 10× MIC HuVEC [3]: 17 | Cytotoxicity at 20× MIC HuVEC [3]: 14 | % plasma binding (Plasma binding): 99.9% | free compound (Plasma binding): no detectable free compound | % serum binding (Serum binding): 99.9% | Human Liver Microsomes Intrinsic Clearance (CLint): 4.35 mL/min/g liver | IC50 (CYP (isoform not given)): > 33 µM | inhibition of CYP (CYP [7]): no detectable inhibition

Cc1cc(F)ccc1-c1cccc(NC(=O)c2ccccc2)c1 [Compound 39731]
MIC (bacteria): 7.6 µg/mL (≈ 24.9 µM) | IC50 (bacteria): 1.6 to 3.4 µg/mL (≈ 5.24 to 11.1 µM) | IC50 [1]: ~60 µg/mL (≈ 196 µM) | Cytotoxicity at 10× MIC HeLa [2]: 8 | Cytotoxicity at 20× MIC HeLa [2]: 10 | Cytotoxicity at 10× MIC HuVEC [3]: 14 | Cytotoxicity at 20× MIC HuVEC [3]: 14 | % plasma binding (Plasma binding): 99.8% | % serum binding (Serum binding): 99.7% | solubility in test medium [4]: * | Human Liver Microsomes Intrinsic Clearance (CLint): 2.12 mL/min/g liver | IC50 (CYP (isoform not given)): > 33 µM | inhibition of CYP (CYP [7]): no detectable inhibition

Cc1cc(F)ccc1-c1cc(Nc2ccccc2)ccn1 [Compound 39712]
MIC (bacteria): 21 µg/mL (≈ 75.5 µM)

Cc1cc(F)ccc1-c1ccc(-c2cn(-c3ccncc3)nn2)cc1 [Compound 39730]
MIC (bacteria): 66 µg/mL (≈ 200 µM)

Cc1cc(F)ccc1-c1cccc(Nc2ccc(S(C)(=O)=O)cc2)c1 [Compound 39734]
MIC (bacteria): 28 µg/mL (≈ 78.8 µM) | IC50 (bacteria): 22 µg/mL (≈ 61.9 µM)

Cc1cc(F)ccc1-c1cccc(-c2cn(-c3ccncc3)nn2)c1 [Compound 39724]
MIC (bacteria): 3.3 to 4.1 µg/mL (≈ 9.99 to 12.4 µM) | IC50 (bacteria): 1.6 to 2.3 µg/mL (≈ 4.84 to 6.96 µM) | IC50 [1]: 6.6 µg/mL (≈ 20 µM) | Cytotoxicity at 10× MIC HeLa [2]: 11 | Cytotoxicity at 20× MIC HeLa [2]: 14 | Cytotoxicity at 10× MIC HuVEC [3]: 16 | Cytotoxicity at 20× MIC HuVEC [3]: 19 | % plasma binding (Plasma binding): 99.5% | % serum binding (Serum binding): 94.6% | Human Liver Microsomes Intrinsic Clearance (CLint): 0.37 mL/min/g liver | IC50 (CYP (isoform not given)): 3.55 µM

Cc1cc(F)ccc1-c1cccc(Nc2ccncc2)n1 [Compound 2170]
MIC (bacteria): 14 µg/mL (≈ 50.1 µM) | IC50 (bacteria): 6.8 µg/mL (≈ 24.3 µM)

Cc1cc(F)ccc1-c1cccc(Nc2ccc(N=[N+]=[N-])cc2)n1 [Compound 39714]
MIC (bacteria): 64 µg/mL (≈ 200 µM)
